Experimental data: publication PMC9230651, “Discovery of Novel Quinazoline Derivatives as Potent Antitumor Agents” (Molecules, 2022)

Columns and labels:
[1] = test system: PC-9; test: MTT assay, antiproliferative activity against PC-9; format: cell-based, human
Description: (§1) Human gastric carcinoma cell line MGC-803, human breast adenocarcinoma cell line MCF-7, human lung carcinoma cell lines (PC-9, A549, and H1975), and human immortalized gastric mucosa epithelial cell line GES-1 were purchased from the Cell Bank of Shanghai Institute of Biochemistry and Cell Biology (Shanghai, China), and all of them were cultured in RPMI-1640 and DMEM complete medium (Solarbio, Beijing, China) at 37 °C in a 5% CO2 humidified atmosphere.
(§2) Briefly, cells were incubated with different concentrations of the test compound for different hours in each experiment for 72 h, followed by adding 20 μL MTT solution to each well, which was then incubated for another 4 h. An enzyme-linked immunosorbent assay reader (BioTek, South Plainfield, VT, USA) was used to measure absorbance values at 490 nm, and SPSS20 software was used to calculate the cell viability and IC50 values.

[2] = test system: GES-1; test: MTT assay, toxicity toward normal gastric epithelial cell line GES-1; format: cell-based, human; conditions: for IC50: MTT, 72 h
Description: as §1, §2

[3] = test system: A549; test: MTT assay, antiproliferative activity against A549; format: cell-based, human
Description: as §1, §2

[4] = test system: MGC-803; test: MTT assay, antiproliferative activity against MGC-803; format: cell-based, human
Description: as §1, §2

[5] = test system: MCF-7; test: MTT assay, antiproliferative activity against MCF-7; format: cell-based, human
Description: as §1, §2

[6] = test system: xenograft model carrying MGC-803 cells; test: In vivo anti-tumor activity, gastric cancer xenograft model; parameters: species or system mice
Description: Male mice (23–25 g, aged 5–6 weeks) were obtained from Beijing Vital River Laboratory Animal Technology Co., Ltd. (Beijing, China). All animal treatments were performed under the guidelines of the National Institutes of Health Guide for the Care and Use of Laboratory Animals using an approved animal protocol by the Zhengzhou University Committee on Animal Care (2020CHEM-ZZU-086). 1.0 × 10^7 MGC-803 cells were implanted in the right flank of mice subcutaneously. After 16 days, the tumor volume reached 100 mm^3, followed by being randomly divided into three groups (n = 7): solvent group, 5-Fu (10 mg/kg) group, and compound 18 (25 mg/kg) group. An intravenous injection of 5-Fu (10 mg/kg) was administered into the corresponding mice group every three days, while the mice in compound 18 group received intragastric administration of 25 mg/kg compound 18 per day for 21 days. Tumor diameter and body weight were measured every two days, followed by the euthanization of the mice after 34 days, after which tumor weights were.

[7] = test system: H1975; test: MTT assay, antiproliferative activity against H1975; format: cell-based, human
Description: as §1, §2

[8] = test system: MGC-803 cells; test: Apoptosis, Annexin V-FITC/PI flow cytometry; format: cell-based, human; conditions: 1.5 μM, 48 h
Description: Cells were plated in 6-well plates and incubated with 0.37 µM, 0.75 µM, and 1.5 µM compound 18 for 48 h, followed by being harvested and stained by PI and Annexin V according to manufacturer’s protocol. Finally, flow cytometry (BD Bioscience, Franklin Lake, NJ, USA) was applied to detect apoptotic cells.

[9] = test system: MGC-803 cells; test: Wound healing migration assay; format: cell-based, human; conditions: 1 µM; 12 h, 24 h, 48 h
Description: For the wound healing assay, MGC-803 cells were seeded into 6-well plates, reaching the density of 90%, followed by being scraped off using a sterile yellow pipette tip and photographed. Subsequently, cells were treated with compound 18 at 1 µM for 12 h, 24 h, and 48 h, respectively, and then photographed again each time.

[10] = test system: MGC-803 cells; test: Western blot of apoptosis-related proteins; format: cell-based, human; conditions: 0.37, 0.75, 1.5 µM; 48 h
Description: Cells were incubated with 0.37 µM, 0.75 µM, and 1.5 µM compound 18 for 48 h and then collected with trypsin and total proteins and extracted in a lysis buffer. A BCA protein assay kit (Solarbio, Beijing, China) was used to confirm the concentration of the total proteins. These samples were detected by the standard protocol of western blot as described before.

[11] = test system: MGC-803 cells; test: Cell cycle distribution, PI flow cytometry; format: cell-based, human; conditions: 0.37, 0.75, 1.5 µM; 48 h
Description: MGC-803 cells were seeded into 6-well plates at a concentration of 4 × 10^5 cells per well, followed by being incubated with 0.37 µM, 0.75 µM, and 1.5 µM compound 18 for 48 h, which were subsequently harvested and stained in 500 µL Propidium Iodide solution (PI 1 mg/mL, RNase A 10 mg/mL, Solarbio, Beijing, China) at room temperature without light for 30 min. Finally, flow cytometry (BD Bioscience, Franklin Lake, NJ, USA) was used to detect and analyze staining cells.

[12] = test system: MGC-803 cells; test: Transwell migration assay; format: cell-based, human; conditions: 0.37, 0.75, 1.5 µM; 48 h
Description: For the transwell assay, 600 µL of fresh medium was added to 20% FBS to the substrate of the 24-well plates. Then, 2 × 10^4 MGC-803 cells were seeded into each well, followed by incubation with 0.37 µM, 0.75 µM, and 1.5 µM compound 18 in the upper chambers for 48 h, which was then stained by DAPI solution and photographed.

[13] = test system: healthy male and female mice; test: Acute toxicity assay; format: in vivo; conditions: 1000 mg/kg intragastric, single dose
Description: The solution of compound 18 was prepared in 80% PEG400 solution. Eight ICR mice (four male/four female, 24–28 g, aged five to six weeks) were obtained from the Beijing Vital River Laboratory Animal Technology Co., Ltd. (Beijing, China). All animal treatments were performed under the guidelines of the National Institutes of Health Guide for the Care and Use of Laboratory Animals using an approved animal protocol by the Zhengzhou University Committee on Animal Care. Male and female mice ([…]) were divided randomly into four groups: a male control group (n = 2), a female control group (n = 2), a male group (n = 2), and a female group (n = 2). All mice were deprived of feed for 12 h. 1 g/kg compound 18 was administered intragastrically in the experiment group of mice, while the mice in the control group received the same volume of vehicle solution on the first day, followed by monitoring abnormal behaviors, body weight, and the death of these mice every day during the following two weeks.

[14] = 10 mg/kg intravenous every three days
[15] = 25 mg/kg intragastric per day for 21 days

| Structure (SMILES) | IC50 ([1]; Homo sapiens, PC-9, 72 h) | IC50 ([2]; Homo sapiens, GES1) | IC50 ([3]; Homo sapiens, A549, 72 h) | IC50 ([4]; Homo sapiens, MGC-803, 72 h) | IC50 ([5]; Homo sapiens, MCF7, 72 h) | IC50 ([7]; Homo sapiens, NCI-H1975, 72 h) | melting point | also measured |
| --- | --- | --- | --- | --- | --- | --- | --- | --- |
| O=c1[nH]cc(F)c(=O)[nH]1 [5-Fu, reference compound] |  |  |  |  |  |  |  | IC50 ([1]; 72 h): 3.68 ± 1.06 µM; IC50 [2]: 3.26 ± 1.07 µM; IC50 ([3]; 72 h): 5.12 ± 1.73 µM; IC50 ([4]; 72 h): 4.11 ± 0.72 µM; IC50 ([5]; 72 h): 4.51 ± 1.23 µM; average tumor volume [6, 14]: decreased the average tumor volume; body weight [6, 14]: did not cause significant changes in body weight; tumor weight [6, 14]: decreased the average tumor volume and tumor weight; IC50 ([7]; 72 h): 2.68 ± 0.86 µM |
| c1ccc(Nc2nc(-c3ccccc3)nc3ccccc23)cc1 [compound 6, N,2-Diphenylquinazolin-4-amine] | 15.8 ± 0.52 µM | > 30 µM | 10.3 ± 0.98 µM | 6.23 ± 0.12 µM | 12.6 ± 0.16 µM | 20.1 ± 1.62 µM |  |  |
| Fc1ccc(Nc2nc(-c3ccccc3)nc3ccccc23)cc1 [compound 7, N-(4-Fluorophenyl)-2-phenylquinazolin-4-amine] | 10.6 ± 2.16 µM | 20.8 ± 3.29 µM | 4.82 ± 0.99 µM | 4.15 ± 1.16 µM | 8.75 ± 1.76 µM | 12.6 ± 2.89 µM |  |  |
| Clc1ccc(Nc2nc(-c3ccccc3)nc3ccccc23)cc1 [compound 8, N-(4-Chlorophenyl)-2-phenylquinazolin-4-amine] | 8.75 ± 1.59 µM | > 30 µM | 6.58 ± 1.31 µM | 3.57 ± 0.89 µM | 6.96 ± 1.57 µM | 10.6 ± 2.46 µM |  |  |
| Brc1ccc(Nc2nc(-c3ccccc3)nc3ccccc23)cc1 [compound 9, N-(4-Bromophenyl)-2-phenylquinazolin-4-amine] | 4.31 ± 0.96 µM | 18.6 ± 1.72 µM | 4.75 ± 1.36 µM | 1.89 ± 0.59 µM | 5.15 ± 1.16 µM | 6.65 ± 1.57 µM | 187 to 193 °C |  |
| O=[N+]([O-])c1ccc(Nc2nc(-c3ccccc3)nc3ccccc23)cc1 [compound 10, N-(4-Nitrophenyl)-2-phenylquinazolin-4-amine] | 12.5 ± 2.83 µM | > 30 µM | 15.7 ± 1.89 µM | 8.32 ± 2.06 µM | 12.2 ± 1.91 µM | 25.8 ± 2.2 µM |  |  |
| FC(F)(F)c1ccc(Nc2nc(-c3ccccc3)nc3ccccc23)cc1 [compound 11, 2-Phenyl-N-(4-(trifluoromethyl)phenyl)quinazolin-4-amine] | 20.8 ± 2.16 µM | 25.4 ± 3.51 µM | 25.4 ± 3.11 µM | 11 ± 1.93 µM | 15.7 ± 1.82 µM | 22.9 ± 2.69 µM | 190 to 195 °C |  |
| Cc1ccc(Nc2nc(-c3ccccc3)nc3ccccc23)cc1 [compound 12, 2-Phenyl-N-(p-tolyl)quinazolin-4-amine] | 15.3 ± 1.53 µM | 24.3 ± 1.96 µM | 8.56 ± 1.72 µM | 5.81 ± 2.41 µM | 10.6 ± 1.67 µM | 19.4 ± 2.38 µM |  |  |
| COc1ccc(Nc2nc(-c3ccccc3)nc3ccccc23)cc1 [compound 13, N-(4-Methoxyphenyl)-2-phenylquinazolin-4-amine] | 6.83 ± 1.29 µM | 21.3 ± 2.79 µM | 5.69 ± 1.68 µM | 4.98 ± 1.26 µM | 8.36 ± 1.92 µM | > 30 µM |  |  |
| COc1cc(Nc2nc(-c3ccccc3)nc3ccccc23)cc(OC)c1OC [compound 14, 2-Phenyl-N-(3,4,5-trimethoxyphenyl)quinazolin-4-amine] | 5.35 ± 1.82 µM | 19.6 ± 2.58 µM | 8.72 ± 1.53 µM | 2.12 ± 0.97 µM | 3.21 ± 2.28 µM | 13.2 ± 1.86 µM |  |  |
| c1ccc(-c2nc(Nc3cccc4ccccc34)c3ccccc3n2)cc1 [compound 15, N-(Naphthalen-1-yl)-2-phenylquinazolin-4-amine] | 15.4 ± 1.92 µM | > 30 µM | 12.2 ± 1.59 µM | 18.9 ± 2.82 µM | > 30 µM | 10.4 ± 1.88 µM | 204 to 208 °C |  |
| O=C(/C=C/c1ccc(F)cc1)c1ccc(Nc2nc(-c3ccccc3)nc3ccccc23)cc1 [compound 16, (E)-3-(4-Fluorophenyl)-1-(4-((2-phenylquinazolin-4-yl)amino)phenyl)prop-2-en-1-one] | 2.75 ± 0.66 µM | 18.8 ± 1.56 µM | 1.98 ± 0.26 µM | 2.02 ± 0.38 µM | 3.96 ± 0.92 µM | 3.67 ± 0.93 µM | 252 to 256 °C |  |
| O=C(/C=C/c1ccc(Cl)cc1)c1ccc(Nc2nc(-c3ccccc3)nc3ccccc23)cc1 [compound 17, (E)-3-(4-Chlorophenyl)-1-(4-((2-phenylquinazolin-4-yl)amino)phenyl)prop-2-en-1-one] | 1.89 ± 0.67 µM | 23.4 ± 2.83 µM | 1.46 ± 0.16 µM | 1.39 ± 0.26 µM | 2.37 ± 0.35 µM | 4.75 ± 0.81 µM | 263 to 267 °C |  |
| O=C(/C=C/c1ccc(Br)cc1)c1ccc(Nc2nc(-c3ccccc3)nc3ccccc23)cc1 [compound 18, (E)-3-(4-Bromophenyl)-1-(4-((2-phenylquinazolin-4-yl)amino)phenyl)prop-2-en-1-one] | 1.26 ± 0.18 µM | 26.8 ± 1.85 µM | 1.54 ± 0.38 µM | 0.85 ± 0.14 µM | 1.61 ± 0.2 µM | 2.12 ± 0.52 µM |  | apoptotic percentage (late and early apoptosis) [8]: 70.9%; selectivity MGC-803 against GES-1 ([2]; IC50 GES-1 / IC50 MGC-803): ~32 fold; effect on migration of MGC-803 cells, wound healing assay [9]: effectively inhibit the migration of MGC-803 cells dose-dependently; expression of Bax [10]: up-regulating; expression of Bcl-2 [10]: remarkably decreased; expression of Mcl-1 [10]: remarkably decreased; expression of cleaved PARP [10]: dose-dependently induced the up-regulation; effect on cell cycle [11]: significantly induced cell cycle arrest at G2/M; average tumor volume [6, 15]: decreased the average tumor volume; body weight [6, 15]: did not cause significant changes in body weight; tumor weight [6, 15]: decreased the average tumor volume and tumor weight; effect on migration of MGC-803 cells, transwell assay [12]: effectively inhibit the migration of MGC-803 cells dose-dependently; pathological damage of brain, heart, liver, spleen, lung, kidney (HE staining) [13]: no marked pathological damage |
| O=C(/C=C/c1ccc2ccccc2c1)c1ccc(Nc2nc(-c3ccccc3)nc3ccccc23)cc1 [compound 19, (E)-3-(Naphthalen-2-yl)-1-(4-((2-phenylquinazolin-4-yl)amino)phenyl)prop-2-en-1-one] | 1.39 ± 0.25 µM | 19.8 ± 2.21 µM | 2.55 ± 0.49 µM | 1.56 ± 0.92 µM | 1.96 ± 0.56 µM | 2.61 ± 0.59 µM | 281 to 286 °C |  |
